Where a name gives a salt, the structure may show the parent alone.
Biological target: T1, human CMR-1 (Homo sapiens, UniProt Q7Z2W7)
T1 construct: expressed in transfected cells
Test: Measurement of the menthol-induced Ca2+ influx in HEK293 cells expressing CMR-1 receptor (Assay 1)
Format: cell-based
Conditions: HEK293 cells stably expressing human CMR-1; preincubation with compound, menthol stimulation; fluo4-AM fluorescence
Excerpt: Measurement of the Menthol-Induced Ca^2+ Influx in […] Cell Expressing CMR-1 Receptor (Assay 1).
A cell-based calcium influx assay using HEK293 cells stably expressing human CMR-1 is used to identify CMR-1 receptor-antagonists. Menthol, a CMR-1 specific agonist, is used for stimulation of these cells, inducing an increase in intracellular calcium. This menthol-induced Ca^2+ increase is traced by fluorescence measurement. Therefore the cells are loaded with fluo4-AM prior to stimulation. For testing inhibitors the cells are preincubated with various concentrations of the compound before menthol stimulation. The potency of potential CMR-1 inhibitors is quantified by measuring decrease of fluorescence.

T1 sequence (Q7Z2W7 whole entry): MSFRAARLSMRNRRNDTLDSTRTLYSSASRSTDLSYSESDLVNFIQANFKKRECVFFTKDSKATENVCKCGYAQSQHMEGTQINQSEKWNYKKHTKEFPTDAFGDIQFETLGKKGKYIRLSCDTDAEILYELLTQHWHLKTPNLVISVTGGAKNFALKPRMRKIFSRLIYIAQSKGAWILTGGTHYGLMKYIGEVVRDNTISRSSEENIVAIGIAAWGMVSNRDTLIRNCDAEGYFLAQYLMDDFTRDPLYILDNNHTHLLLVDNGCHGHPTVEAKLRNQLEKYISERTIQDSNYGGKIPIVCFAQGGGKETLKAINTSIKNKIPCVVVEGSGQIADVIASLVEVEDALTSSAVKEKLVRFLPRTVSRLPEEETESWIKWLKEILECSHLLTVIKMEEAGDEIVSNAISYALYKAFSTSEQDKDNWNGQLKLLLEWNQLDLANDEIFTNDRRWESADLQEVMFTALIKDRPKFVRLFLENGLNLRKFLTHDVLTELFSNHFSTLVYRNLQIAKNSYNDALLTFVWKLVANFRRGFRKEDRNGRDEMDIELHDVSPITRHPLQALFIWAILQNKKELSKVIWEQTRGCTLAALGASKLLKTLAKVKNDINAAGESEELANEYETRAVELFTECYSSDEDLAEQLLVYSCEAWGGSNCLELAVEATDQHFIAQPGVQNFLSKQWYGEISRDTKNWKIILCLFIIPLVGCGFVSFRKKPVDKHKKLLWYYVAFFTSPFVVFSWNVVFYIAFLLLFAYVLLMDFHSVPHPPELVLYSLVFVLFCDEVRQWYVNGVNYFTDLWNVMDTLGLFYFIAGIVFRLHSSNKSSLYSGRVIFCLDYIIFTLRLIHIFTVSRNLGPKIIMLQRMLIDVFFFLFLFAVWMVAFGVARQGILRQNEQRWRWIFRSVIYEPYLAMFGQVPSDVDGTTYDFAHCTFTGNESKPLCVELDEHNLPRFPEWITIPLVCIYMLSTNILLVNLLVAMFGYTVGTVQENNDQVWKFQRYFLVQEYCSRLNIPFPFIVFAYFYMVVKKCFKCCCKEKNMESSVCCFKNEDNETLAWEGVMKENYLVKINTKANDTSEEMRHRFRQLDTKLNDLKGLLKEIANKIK

Structure (SMILES)	IC50
COc1cc(CN(Cc2ccccc2)C(=O)c2ccccc2)ccc1OCc1ccc(F)cc1 [Example 38, N-benzyl-N-{4-[(4-fluorobenzyl)oxy]-3-methoxybenzyl}benzamide]	40 nM
COc1cc(CN(CCN)C(=O)c2ccccc2)ccc1OCc1ccccc1 [Example 4-1, N-(2-aminoethyl)-N-[4-(benzyloxy)-3-methoxybenzyl]benzamide trifluoroacetate]	150 nM
COc1cc(CN(CCN)C(=O)c2cccs2)ccc1OCc1ccccc1F [Example 17, N-(2-aminoethyl)-N-{4-[(2-fluorobenzyl)oxy]-3-methoxybenzyl}thiophene-2-carboxamide trifluoroacetate]	1 nM
COc1cc(CN(CCN)C(=O)CC(C)(C)C)ccc1OCc1ccc(F)cc1F [Example 20]	8 nM
COc1cc(CN(CCN)C(=O)c2cccs2)ccc1OCc1ccccc1 [Example 3-1, N-(2-aminoethyl)-N-[4-(benzyloxy)-3-methoxybenzyl]thiophene-2-carboxamide hydrochloride]	1 nM
COc1cc(CN(CCCNC(=O)OC(C)(C)C)C(=O)c2cccs2)ccc1OCc1ccc(F)cc1 [Example 10]	70 nM
